Reference: patent publication US20210338709A1, “USES OF MODIFIED RNA ENCODING RETINALDEHYDE DEHYDROGENASE” (priority 2018, published 2021)

Assays:
mucosal memory responses = test: Effect of ATRA on immune responses in skin-draining lymph nodes in vivo
Salmonella = settings: ATRA during parenteral immunization, reference 12; cited from earlier work

## CC1=C(/C=C/C(C)=C/C=C/C(C)=C/C(=O)O)C(C)(C)CCC1 [ATRA, all-trans retinoic acid]
Mucosal memory responses
  mucosal memory responses at mucosal surfaces: not only enhanced in the small intestine, but also at other mucosal surfaces
Salmonella
  protection against Salmonella infections: convey protection against Salmonella infections
